*1 amine or outer side, *2 acyl side, *3 side chain or, on linkers, in order; H or OH if unused. Where a SMILES comes first, the peptide text is derived from it. Bridges are numbered along the chain shown (N, C = ends). [ ]: non-standard residue; d: D form. The star is where a group is joined. DOTA = O=C(O)CN1CCN(CC(=O)O)CCN(CC(=O)*)CCN(CC(=O)O)CC1; Phe(4-Cl) = N[C@@H](Cc1ccc(Cl)cc1)C(=O)O; Pro(cis-4-F) = O=C(O)[C@@H]1C[C@H](F)CN1; Hyp = O=C(O)[C@@H]1C[C@@H](O)CN1; hPhe = N[C@@H](CCc1ccccc1)C(=O)O; tBuAla = CC(C)(C)C[C@H](N)C(=O)O; αMeF = C[C@](N)(Cc1ccccc1)C(=O)O; Pentanoyl(4-Me) = CC(C)CCC(=O)*; Cha = N[C@@H](CC1CCCCC1)C(=O)O; Cit = NC(=O)NCCC[C@H](N)C(=O)O; Cysteamide = C(CS[*:3])N[*:1]; NMeL = CN[C@@H](CC(C)C)C(=O)O; Butoxycarbonyl = CCCCOC(=O)*; Chg = N[C@H](C(=O)O)C1CCCCC1; NMeV = CN[C@H](C(=O)O)C(C)C; Pip = O=C(O)[C@@H]1CCCCN1; Ac6c = NC1(C(=O)O)CCCCC1; Nva = CCC[C@H](N)C(=O)O; Hexanoyl = CCCCCC(=O)*; Pentanoyl = CCCCC(=O)*; Aib = CC(C)(N)C(=O)O; NEtG = CCNCC(=O)O
Key:
[1] = molecular target: T1, uPAR-expressing HEC-265 human endometrial adenocarcinoma cells (Homo sapiens, UniProt Q03405); assay: Competitive FACS binding assay; settings: pIC50 category of FACS binding
T1 construct: Cell surface uPAR-expressing HEC-265 human endometrial adenocarcinoma cells; host or cells: HEC-265
How it was run: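 HEC-265 cells incubated 1 h at 4 °C with 10 nM biotinylated uPAR peptide tracer plus increasing test compound, then stained with APC-streptavidin on ice. Median APC fluorescence by flow cytometry; 4PL fit gives pIC50.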

[2] = molecular target: T2, human uPAR (uPAR-Fc) (Homo sapiens, UniProt Q03405); assay: Surface plasmon resonance (SPR) assay, single cycle kinetics; assay type: binding; settings: pKD category for uPAR SPR activity assay; uPAR-Fc on Protein A-Chip, single cycle kinetics, 25°C; read-out: pKD CAT (converted)
T2 construct: comprising amino acids Leu23-Arg303 according to UniProt entry Q03405.1; purchased R&D Systems 10378-UK-100
How it was run: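 uPAR-Fc (Leu23-Arg303 extracellular domains, human IgG1 Fc) captured on Protein A chip to ~2000 RU; single-cycle kinetics at 25°C in HEPES running buffer pH 7.4 with 0.1% DMSO. KD from double-referenced sensorgrams fitted to 1:1 Langmuir model, reported as pKD.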

T2 sequence (Q03405 23-303): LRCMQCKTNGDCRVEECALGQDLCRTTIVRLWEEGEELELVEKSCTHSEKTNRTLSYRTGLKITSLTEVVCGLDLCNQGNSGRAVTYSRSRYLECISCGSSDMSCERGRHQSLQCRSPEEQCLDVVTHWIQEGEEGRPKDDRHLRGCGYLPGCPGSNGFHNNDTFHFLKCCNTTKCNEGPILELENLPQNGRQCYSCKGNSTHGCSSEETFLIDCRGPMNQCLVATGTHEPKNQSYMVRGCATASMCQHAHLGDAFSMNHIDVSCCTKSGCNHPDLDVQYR
T1 sequence (Q03405 23-335): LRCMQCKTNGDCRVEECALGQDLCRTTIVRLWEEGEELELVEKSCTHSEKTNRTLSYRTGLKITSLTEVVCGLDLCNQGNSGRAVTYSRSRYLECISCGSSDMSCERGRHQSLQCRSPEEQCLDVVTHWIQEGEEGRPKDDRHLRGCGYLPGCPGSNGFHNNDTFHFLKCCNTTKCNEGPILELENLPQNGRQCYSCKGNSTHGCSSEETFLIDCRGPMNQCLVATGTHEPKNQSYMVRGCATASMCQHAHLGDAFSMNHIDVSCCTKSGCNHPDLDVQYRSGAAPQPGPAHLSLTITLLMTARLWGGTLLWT

| SMILES | IC50 [1] [nM] | Kd [2] [nM] |
| --- | --- | --- |
| CCCCC(=O)N[C@H]1CSSC[C@@H](C(N)=O)NC(=O)[C@H](CCC)NC(=O)[C@H](CCc2ccccc2)NC(=O)[C@@H]2C[C@@H](O)CN2C(=O)[C@@H]2CCCN2C(=O)[C@H](Cc2ccccc2)NC(=O)[C@H](Cc2ccc(O)cc2)NC(=O)[C@H](CCC(N)=O)NC(=O)[C@H](CCCNC(=N)N)NC1=O [UPAR-461, Pent-[Cys-Arg-Gln-Tyr-Phe-Pro-Hyp-Hfe-Nva-Cys]-NH2] (Pentanoyl-CRQYFP[Hyp][hPhe][Nva]C-NH2; disulfide 1-10) | ≤ 10 | < 1.58 |
| CCNCC(=O)N[C@H]1CSSC[C@@H](C(N)=O)NC(=O)[C@H](CC(C)C)NC(=O)[C@H]([C@@H](C)CC)NC(=O)[C@@H](C)NC(=O)[C@@H]2CCCN2C(=O)[C@H](Cc2ccccc2)NC(=O)[C@H](Cc2ccc(O)cc2)NC(=O)[C@H](CCC(N)=O)NC(=O)[C@H](CCCNC(N)=O)NC1=O [UPAR-462, H-NEtg-[Cys-Cit-Gln-Tyr-Phe-Pro-ala-Ile-Leu-Cys]-NH2] (H-[NEtG]C[Cit]QYFP[dA]ILC-NH2; disulfide 2-11) | 39.8 to 100 | 10 to 100 |
| CCCCC(=O)N[C@H]1CSSC[C@@H](C(N)=O)NC(=O)[C@H](CCC)NC(=O)[C@H]([C@@H](C)CC)NC(=O)[C@@H](Cc2ccc(O)cc2)NC(=O)[C@@H]2CCCN2C(=O)[C@H](Cc2ccccc2)NC(=O)[C@H](Cc2ccc(O)cc2)NC(=O)[C@H](CCC(N)=O)NC(=O)[C@H](CCCNC(=N)N)NC1=O [UPAR-465, Pent-[Cys-Arg-Gln-Tyr-Phe-Pro-tyr-Ile-Nva-Cys]-NH2] (Pentanoyl-CRQYFP[dY]I[Nva]C-NH2; disulfide 1-10) | ≤ 10 | < 1.58 |
| CC[C@H](C)[C@@H]1NC(=O)[C@@H](C)NC(=O)[C@@H]2CCCN2C(=O)[C@H](Cc2ccccc2)NC(=O)[C@H](Cc2ccc(O)cc2)NC(=O)[C@H](CCC(N)=O)NC(=O)[C@@H](CCCNC(=N)N)NC(=O)[C@@H](NC(=O)CCC(C)C)CSSC[C@@H](C(N)=O)NC(=O)[C@H](CC(C)C)NC1=O [UPAR-467, iHex-[Cys-arg-Gln-Tyr-Phe-Pro-ala-Ile-Leu-Cys]-NH2] ({Pentanoyl(4-Me)}-C[dR]QYFP[dA]ILC-NH2; disulfide 1-10) | ≥ 126 | 10 to 100 |
| CC[C@H](C)[C@@H]1NC(=O)[C@@H](C)NC(=O)[C@@H]2CCCN2C(=O)[C@H](Cc2ccccc2)NC(=O)[C@H](Cc2ccc(O)cc2)NC(=O)[C@H](CCC(N)=O)NC(=O)C(C)(C)NC(=O)[C@@H](NC(=O)CCC(C)C)CSSC[C@@H](C(N)=O)NC(=O)[C@H](CC(C)C)NC1=O [UPAR-468, iHex-[Cys-Aib-Gln-Tyr-Phe-Pro-ala-Ile-Leu-Cys]-NH2] ({Pentanoyl(4-Me)}-C[Aib]QYFP[dA]ILC-NH2; disulfide 1-10) | ≤ 10 | 1.58 to 10 |
| CC[C@H](C)[C@@H]1NC(=O)[C@@H]2CCCCN2C(=O)[C@@H]2CCCN2C(=O)[C@H](Cc2ccccc2)NC(=O)[C@H](Cc2ccc(O)cc2)NC(=O)[C@H](CCC(N)=O)NC(=O)[C@H](CCCNC(N)=O)NC(=O)[C@@H](NC(=O)CCC(C)C)CSSC[C@@H](C(N)=O)NC(=O)[C@H](CC(C)C)NC1=O [UPAR-469, iHex-[Cys-Cit-Gln-Tyr-Phe-Pro-Pip-Ile-Leu-Cys]-NH2] ({Pentanoyl(4-Me)}-C[Cit]QYFP[Pip]ILC-NH2; disulfide 1-10) | 12.6 to 31.6 | 1.58 to 10 |
| CCCCC(=O)N[C@H]1CSSC[C@@H](C(N)=O)NC(=O)[C@H](CCC)NC(=O)[C@H]([C@@H](C)CC)NC(=O)[C@@H]2C[C@@H](O)CN2C(=O)[C@H](C(C)C)N(C)C(=O)[C@H](Cc2ccccc2)NC(=O)[C@H](Cc2ccc(O)cc2)NC(=O)[C@H](CCC(N)=O)NC(=O)[C@H](CCCNC(=N)N)NC1=O [UPAR-470, Pent-[Cys-Arg-Gln-Tyr-Phe-Nmv-Hyp-Ile-Nva-Cys]-NH2] (Pentanoyl-CRQYF[NMeV][Hyp]I[Nva]C-NH2; disulfide 1-10) | ≥ 126 | > 100 |
| CCCCC(=O)N[C@H]1CSSC[C@@H](C(N)=O)NC(=O)[C@H](CCC)NC(=O)[C@H]([C@@H](C)CC)NC(=O)[C@@H]2C[C@@H](O)CN2C(=O)[C@@H]2CCCN2C(=O)[C@H](Cc2ccccc2)NC(=O)[C@H](Cc2ccc(O)cc2)NC(=O)[C@H](CCCCNC(=O)CN2CCN(CC(=O)O)CCN(CC(=O)O)CCN(CC(=O)O)CC2)NC(=O)[C@H](CCC(=O)O)NC1=O [UPAR-471, Pent-[Cys-Glu-Lys(DOTA)-Tyr-Phe-Pro-Hyp-Ile-Nva-Cys]-NH2] (Pentanoyl-CEK(DOTA)YFP[Hyp]I[Nva]C-NH2; disulfide 1-10) | ≤ 10 | < 1.58 |
| CCCCC(=O)N[C@H]1CSSC[C@@H](C(N)=O)NC(=O)[C@H](CCC)NC(=O)[C@H]([C@@H](C)CC)NC(=O)[C@@H]2CCCN2C(=O)[C@@H]2CCCN2C(=O)[C@H](Cc2ccccc2)NC(=O)[C@H](Cc2ccc(O)cc2)NC(=O)[C@H](CCCCNC(=O)CN2CCN(CC(=O)O)CCN(CC(=O)O)CCN(CC(=O)O)CC2)NC(=O)[C@H](CCCNC(N)=O)NC1=O [UPAR-473, Pent-[Cys-Cit-Lys(DOTA)-Tyr-Phe-Pro-Pro-Ile-Nva-Cys]-NH2] (Pentanoyl-C[Cit]K(DOTA)YFPPI[Nva]C-NH2; disulfide 1-10) | ≤ 10 | < 1.58 |
| CC[C@H](C)[C@@H]1NC(=O)[C@@H](C)NC(=O)[C@@H]2CCCN2C(=O)[C@H](Cc2ccccc2)NC(=O)[C@H](Cc2ccc(O)cc2)NC(=O)[C@H](CCC(N)=O)NC(=O)[C@H](CCCNC(N)=O)NC(=O)[C@@H](NC(=O)CCC(C)C)CSSC[C@@H](C(N)=O)NC(=O)[C@H](CC2CCCCC2)NC1=O [UPAR-474, iHex-[Cys-Cit-Gln-Tyr-Phe-Pro-ala-Ile-Cha-Cys]-NH2] ({Pentanoyl(4-Me)}-C[Cit]QYFP[dA]I[Cha]C-NH2; disulfide 1-10) | ≥ 126 | > 100 |
| CCCCCC(=O)N[C@H]1CSSC[C@@H](C(N)=O)NC(=O)[C@H](CC(C)C)NC(=O)[C@H]([C@@H](C)CC)NC(=O)[C@@H](C)NC(=O)[C@@H]2CCCN2C(=O)[C@H](Cc2ccccc2)NC(=O)[C@H](Cc2ccc(O)cc2)NC(=O)[C@H](CCC(N)=O)NC(=O)[C@H](CCCNC(N)=O)NC1=O [UPAR-475, Hex-[Cys-Cit-Gln-Tyr-Phe-Pro-ala-Ile-Leu-Cys]-NH2] (Hexanoyl-C[Cit]QYFP[dA]ILC-NH2; disulfide 1-10) | ≤ 10 | < 1.58 |
| CCCCOC(=O)N[C@H]1CSSC[C@@H](C(N)=O)NC(=O)[C@H](CCC)NC(=O)[C@H](C2CCCCC2)NC(=O)[C@@H]2C[C@@H](O)CN2C(=O)[C@@H]2C[C@H](F)CN2C(=O)[C@H](Cc2ccc(Cl)cc2)NC(=O)[C@H](Cc2ccc(O)cc2)NC(=O)[C@H](CCCCNC(=O)CN2CCN(CC(=O)O)CCN(CC(=O)O)CCN(CC(=O)O)CC2)NC(=O)[C@H](CCCNC(N)=O)NC1=O [UPAR-476, Butoc-[Cys-Cit-Lys(DOTA)-Tyr-Pcf-4Cfp-Hyp-Chg-Nva-Cys]-NH2] (Butoxycarbonyl-C[Cit]K(DOTA)Y[Phe(4-Cl)][Pro(cis-4-F)][Hyp][Chg][Nva]C-NH2; disulfide 1-10) | ≤ 10 | < 1.58 |
| CC[C@H](C)[C@@H]1NC(=O)[C@@H](C)NC(=O)[C@@H]2CCCN2C(=O)[C@H](Cc2ccccc2)NC(=O)[C@H](Cc2ccc(O)cc2)NC(=O)[C@H](CCC(N)=O)NC(=O)[C@H](CCCNC(N)=O)NC(=O)[C@@H](NC(=O)CCC(C)C)CSSC[C@@H](C(N)=O)NC(=O)[C@H](CC(C)(C)C)NC1=O [UPAR-477, iHex-[Cys-Cit-Gln-Tyr-Phe-Pro-ala-Ile-Npg-Cys]-NH2] ({Pentanoyl(4-Me)}-C[Cit]QYFP[dA]I[tBuAla]C-NH2; disulfide 1-10) | 39.8 to 100 | 10 to 100 |
| CCCCC(=O)N[C@H]1CSSC[C@@H](C(N)=O)NC(=O)[C@H](CCC)NC(=O)[C@H]([C@@H](C)CC)NC(=O)[C@@H]2C[C@@H](O)CN2C(=O)[C@@H]2CCCN2C(=O)[C@H](Cc2ccccc2)NC(=O)[C@](C)(Cc2ccccc2)NC(=O)[C@H](CCC(N)=O)NC(=O)[C@H](CCCNC(=N)N)NC1=O [UPAR-478, Pent-[Cys-Arg-Gln-Amf-Phe-Pro-Hyp-Ile-Nva-Cys]-NH2] (Pentanoyl-CRQ[αMeF]FP[Hyp]I[Nva]C-NH2; disulfide 1-10) | 39.8 to 100 | 10 to 100 |
| CCCCC(=O)N[C@H]1CSSC[C@@H](C(N)=O)NC(=O)[C@H](CC(C)C)N(C)C(=O)[C@H]([C@@H](C)CC)NC(=O)[C@@H]2C[C@@H](O)CN2C(=O)[C@@H]2CCCN2C(=O)[C@H](Cc2ccccc2)NC(=O)[C@H](Cc2ccc(O)cc2)NC(=O)[C@H](CCC(N)=O)NC(=O)[C@H](CCCNC(=N)N)NC1=O [UPAR-480, Pent-[Cys-Arg-Gln-Tyr-Phe-Pro-Hyp-Ile-Nml-Cys]-NH2] (Pentanoyl-CRQYFP[Hyp]I[NMeL]C-NH2; disulfide 1-10) | ≥ 126 | > 100 |
| CCCCC(=O)N[C@H]1CSSCCNC(=O)[C@H](CCC)NC(=O)[C@H]([C@@H](C)CC)NC(=O)[C@@H]2C[C@@H](O)CN2C(=O)[C@@H]2CCCN2C(=O)[C@H](Cc2ccccc2)NC(=O)[C@H](Cc2ccc(O)cc2)NC(=O)[C@H](CCC(N)=O)NC(=O)[C@H](CCCNC(=N)N)NC1=O [UPAR-481, Pent-[Cys-Arg-Gln-Tyr-Phe-Pro-Hyp-Ile-Nva-AET]] (Pentanoyl-CRQYFP[Hyp]I[Nva]-Cysteamide; disulfide 1-C) | ≤ 10 | < 1.58 |
| CCC[C@@H]1NC(=O)[C@H]([C@@H](C)CC)NC(=O)[C@@H]2C[C@@H](O)CN2C(=O)[C@@H]2CCCN2C(=O)[C@H](Cc2ccccc2)NC(=O)[C@H](Cc2ccc(O)cc2)NC(=O)[C@H](CCC(N)=O)NC(=O)[C@H](CCCNC(=N)N)NC(=O)[C@@H](NC(=O)C2(NC(C)=O)CCCCC2)CSSC[C@@H](C(N)=O)NC1=O [UPAR-482, Ac-Egz-[Cys-Arg-Gln-Tyr-Phe-Pro-Hyp-Ile-Nva-Cys]-NH2] (Ac-[Ac6c]CRQYFP[Hyp]I[Nva]C-NH2; disulfide 2-11) | ≤ 10 | < 1.58 |
